Literature values, collected in article PMC7984292 (Chemmedchem, 2020).
pIC50: −log10 of the molar value. Values joined by “and” are separate entries in the source; they are usually repeats but may differ in a detail not shown here. Equal entries are not always repeated.

What was measured:
hDAT = hDAT (Homo sapiens, UniProt Q01959); conditions: read-out: IC50 hDAT; oxo isomers; taken from reference
[1] = not given; remark: listed apart in the source

Chain of hDAT (Q01959 whole entry): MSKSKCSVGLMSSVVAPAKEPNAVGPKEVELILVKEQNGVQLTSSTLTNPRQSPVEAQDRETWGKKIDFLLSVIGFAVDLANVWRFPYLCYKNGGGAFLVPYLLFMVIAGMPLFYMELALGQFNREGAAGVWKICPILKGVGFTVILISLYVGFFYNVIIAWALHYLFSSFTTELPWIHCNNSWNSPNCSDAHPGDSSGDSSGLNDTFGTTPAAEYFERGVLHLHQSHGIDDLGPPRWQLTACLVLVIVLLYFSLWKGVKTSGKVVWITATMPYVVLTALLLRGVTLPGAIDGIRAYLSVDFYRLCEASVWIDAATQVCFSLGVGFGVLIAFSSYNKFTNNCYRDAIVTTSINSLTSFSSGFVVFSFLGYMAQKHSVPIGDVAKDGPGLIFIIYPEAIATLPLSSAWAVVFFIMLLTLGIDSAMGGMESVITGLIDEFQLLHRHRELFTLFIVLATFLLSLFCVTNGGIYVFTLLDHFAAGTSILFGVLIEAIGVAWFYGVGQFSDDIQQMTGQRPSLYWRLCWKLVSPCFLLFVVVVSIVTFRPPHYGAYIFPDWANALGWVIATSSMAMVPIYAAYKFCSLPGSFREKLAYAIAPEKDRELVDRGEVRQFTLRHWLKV

In the case of `O=C(O)CN(CCN(CC(=O)O)Cc1ccccc1O)Cc1ccccc1O` [HBED], the “log K GaL (stability constant for the Ga3+ complex)” value is listed as 38.51.
In the case of `CN1[C@H]2CC[C@@H]1[C@@H](CN(CC[S-])CC[N-]CC[S-])[C@@H](c1ccc(Cl)cc1)C2.[O]=[99Tc+4]` [TRODAT‐1 6], the pIC50 (hDAT) is listed as 8.07 and 7.86 and the “log P” value ([1]; value in parentheses = log P, literature value) is listed as “(0.29±0.04) ^[29]”.
In the case of `COC(=O)[C@H]1[C@@H](OC(=O)c2ccccc2)C[C@@H]2CC[C@H]1N2C` [cocaine 1, cocaine], the “log D 7.4” value ([1]; pH 7.4) is given as 1.31±0.01 ^[22].
